Patent US7135479B2, “Antidepressant azaheterocyclylmethyl derivatives of heterocycle-fused benzodioxans” (Wyeth, priority 2002, dated 2006)
Structures can show the parent of a compound that is named as a salt. Where two headings read alike, the source gives them in different places.

Key:
serotonin transporter = target: T1, serotonin transporter (Rattus norvegicus, UniProt P31652); assay: 3H-paroxetine displacement from male rat frontal cortical membranes (affinity for the serotonin transporter); type: binding; details: read-out: 5-HT Transporter Affinity KI
T1 construct: displace ^3H-paroxetine from male rat frontal cortical membranes; from tissue; host or cells: male rat frontal cortex membranes
T1 sequence (P31652 whole entry): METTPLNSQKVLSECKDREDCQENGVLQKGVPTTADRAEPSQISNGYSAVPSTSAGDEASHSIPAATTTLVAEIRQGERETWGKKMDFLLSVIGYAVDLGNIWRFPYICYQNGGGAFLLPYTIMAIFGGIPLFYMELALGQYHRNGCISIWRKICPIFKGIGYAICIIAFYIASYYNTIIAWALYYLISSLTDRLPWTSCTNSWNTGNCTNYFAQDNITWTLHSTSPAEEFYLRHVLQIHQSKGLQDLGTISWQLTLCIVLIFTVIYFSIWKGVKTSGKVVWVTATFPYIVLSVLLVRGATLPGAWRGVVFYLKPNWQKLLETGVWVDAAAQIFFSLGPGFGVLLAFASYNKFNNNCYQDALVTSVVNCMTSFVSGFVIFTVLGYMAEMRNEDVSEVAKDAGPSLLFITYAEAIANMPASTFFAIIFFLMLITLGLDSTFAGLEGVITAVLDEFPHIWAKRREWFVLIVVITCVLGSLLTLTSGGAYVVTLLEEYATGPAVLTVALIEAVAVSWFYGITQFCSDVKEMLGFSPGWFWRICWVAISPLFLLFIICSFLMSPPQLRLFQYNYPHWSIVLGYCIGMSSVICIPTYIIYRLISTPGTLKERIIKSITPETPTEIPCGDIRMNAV

human 5-HT1A receptors = target: T2, human 5-HT1A receptors (Homo sapiens, UniProt P08908); assay: [3H] 8-OHDPAT displacement from 5-HT1A receptor, CHO cells stably transfected with human 5-HT1A receptors; type: binding; details: read-out: 5-HT1A Function KI
T2 construct: expressed in transfected cells; host or cells: CHO cells
T2 sequence (P08908 1-422): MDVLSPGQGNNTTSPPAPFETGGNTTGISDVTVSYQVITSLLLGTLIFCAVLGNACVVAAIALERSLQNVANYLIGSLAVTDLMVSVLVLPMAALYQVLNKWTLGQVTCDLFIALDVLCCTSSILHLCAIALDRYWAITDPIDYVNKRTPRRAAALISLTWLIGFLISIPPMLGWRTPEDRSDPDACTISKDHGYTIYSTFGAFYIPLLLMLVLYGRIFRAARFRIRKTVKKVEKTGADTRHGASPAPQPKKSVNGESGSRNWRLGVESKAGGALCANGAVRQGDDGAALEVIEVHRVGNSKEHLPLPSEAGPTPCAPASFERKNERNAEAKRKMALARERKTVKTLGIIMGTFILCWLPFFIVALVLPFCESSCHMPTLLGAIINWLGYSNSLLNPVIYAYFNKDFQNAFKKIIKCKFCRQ
From the text: High affinity for the serotonin 5-HT1A receptor was established by testing the claimed compound's ability to displace [^3H] 8-OHDPAT (dipropylaminotetralin) from the 5-HT1A serotonin receptor following a modification of the procedure of Hall et al., J. Neurochem. 44, 1685 (1985) which utilizes CHO cells stably transfected with human 5-HT1A receptors.

[1] = target: T3, cloned human 5-HT1A receptors (Homo sapiens, UniProt P08908); assay: 35S-GTPγS binding assay, antagonist activity at 5-HT1A receptors; type: biochemical; details: for IC50: potency in reversing the effects of the standard agonist 8-OHDPAT, read-out: 5-HT1A Receptor Affinity IC50 (nM) (Imax): IC50; for Emax: read-out: 5-HT1A Receptor Affinity IC50 (nM) (Imax): Imax
T3 construct: expressed in transfected cells
T3 sequence (P08908 1-422): T2 sequence (P08908 1-422)
Method: Antagonist activity at 5-HT1A receptors was established by using a ^35S-GTPγS binding assay similar to that used by Lazareno and Birdsall (Br. J. Pharmacol. 109: 1120, 1993), in which the test compound's ability to affect the binding of ^35S-GTPγS to membranes containing cloned human 5-HT1A receptors was determined. Agonists produce an increase in binding whereas antagonists produce no increase but rather reverse the effects of the standard agonist 8-OHDPAT. The test compound's maximum inhibitory effect is represented as the Imax, while its potency is defined by the IC50.

[2] = value in brackets, maximum inhibitory effect

| SMILES | Ki (serotonin transporter) [nM] | Ki (human 5-HT1A receptors) [nM] | IC50 [1] [nM] | Emax [1, 2] [%] | melting point | Emax [1] [%] |
| --- | --- | --- | --- | --- | --- | --- |
| Cc1ccc2c3c(ccc2n1)OCC(CN1CC(Cn2ccc4ccc(F)cc42)C1)O3 (stereo not shown) [Example 9, 2-[3-(6-Fluoro-indol-1-ylmethyl)-azetidin-1-ylmethyl]-8-methyl-2,3-dihydro-[1,4]dioxino[2,3-f]quinoline] | 0.11 | 55 | – | – | – | – |
| Cc1ccc2c3c(ccc2n1)OC[C@H](CN1CCC(Cn2ccc4ccc(C#N)cc42)CC1)O3 [Example 8] | 0.6 | 6.56 | 243 | 100 | – | – |
| Cc1ccc2c3c(ccc2n1)OC[C@H](CN1CC(Cc2cn(C)c4ccc(F)cc24)C1)O3 [Example 5] | 0.72 | 16.7 | 34.5 | 96.3 | – | – |
| Cc1ccc2c3c(ccc2n1)OC[C@H](CN1CC(CCn2ccc4ccc(C#N)cc42)C1)O3 [Example 11, 1-{2-[1-(8-Methyl-2,3-dihydro-[1,4]-dioxino[2,3-f]quinolin-2-ylmethyl)-azetinin-3-yl]-ethyl}-1H-indole-6-carbonitrile] | 2.86 | 1.52 | 251 | 85 | – | – |
| Cc1ccc2c3c(ccc2n1)OCC(CN1CC(Cc2c[nH]c4ccc(F)cc24)C1)O3 (stereo not shown) [Example 1, 2-[3-(5-Fluoro-1H-indol-3-ylmethyl)-azetidin-1-ylmethyl]-8-methyl-2,3-dihydro-[1,4]dioxino[2,3-f]quinoline] | 1.29 | 2.5 | 59.5 | 73.7 | – | – |
| CCc1ccc2c3c(ccc2n1)OC[C@H](CN1CCC(Cn2ccc4ccc(F)cc42)CC1)O3 [Example 7] | 1.61 | 15.2 | 208 | 81.5 | – | – |
| Cc1ccc2c3c(ccc2n1)OCC(CN1CCCC(Cc2c[nH]c4cc(F)ccc24)C1)O3 (stereo not shown) (as salt: salt) [Example 3, 2-[3-(6-Fluoro-1H-indol-3-ylmethyl)-piperidin-1-ylmethyl]-8-methyl-2,3-dihydro-[1,4]dioxino[2,3-f]quinoline] | – | – | – | – | 50 °C (dec.) | – |
| Cc1ccc2c3c(ccc2n1)OC[C@H](CN1CC(CCn2ccc4ccc(C#N)cc42)C1)O3 (as salt: hydrochloride) [Example 11, 1-{2-[1-(8-Methyl-2,3-dihydro-[1,4]-dioxino[2,3-f]quinolin-2-ylmethyl)-azetinin-3-yl]-ethyl}-1H-indole-6-carbonitrile] | – | – | – | – | 144 °C (dec.) | – |
| CCc1ccc2c3c(ccc2n1)OC[C@H](CN1CCC(Cn2ccc4ccc(F)cc42)CC1)O3 (as salt: hydrochloride) [Example 7] | – | – | – | – | > 250 °C | – |
| Cc1ccc2c3c(ccc2n1)OCC(CN1CC(Cn2ccc4ccc(F)cc42)C1)O3 (stereo not shown) (as salt: salt) [Example 9, 2-[3-(6-Fluoro-indol-1-ylmethyl)-azetidin-1-ylmethyl]-8-methyl-2,3-dihydro-[1,4]dioxino[2,3-f]quinoline] | – | – | – | – | 138 °C (dec.) | – |
| Cc1ccc2[nH]cc(CC3CN(C[C@H]4COc5ccc6nc(C)ccc6c5O4)C3)c2c1 [Example 12, 8-Methyl-2-[3-(5-methyl-1H-indol-3-ylmethyl)-azetidin-1-ylmethyl]-2,3-dihydro-[1,4]dioxino[2,3-f]quinoline] | 1.04 | – | 38.6 | 89.5 | – | – |
| Cc1ccc2c3c(ccc2n1)OCC(CN1CCCC(Cc2c[nH]c4ccc(F)cc24)C1)O3 (stereo not shown) (as salt: hydrochloride) [Example 2, 2-[3-(5-Fluoro-1H-indol-3-ylmethyl)-piperidin-1-ylmethyl]-8-methyl-2,3-dihydro-[1,4]dioxino[2,3-f]quinoline] | – | – | – | – | 68 °C (dec.) | – |
| Cc1ccc2c3c(ccc2n1)OCC(CN1CC(CCn2ccc4ccc(F)cc42)C1)O3 (stereo not shown) [Example 10, 2-{3-[2-(6-Fluoro-indol-1-yl)-ethyl]-azetidin-1-ylmethyl}-8-methyl-2,3-dihydro-[1,4]dioxino[2,3-f]quinoline] | 4.26 | 1.9 | 343 | 80 | – | – |
| Cc1ccc2c3c(ccc2n1)OCC(CN1CCCC(Cc2c[nH]c4cc(F)ccc24)C1)O3 (stereo not shown) [Example 3, 2-[3-(6-Fluoro-1H-indol-3-ylmethyl)-piperidin-1-ylmethyl]-8-methyl-2,3-dihydro-[1,4]dioxino[2,3-f]quinoline] | 15.1 | 3.4 | 666 | 100 | – | – |
| Cc1ccc2c3c(ccc2n1)OCC(CN1CC(CCn2ccc4ccc(F)cc42)C1)O3 (stereo not shown) (as salt: hydrochloride) [Example 10, 2-{3-[2-(6-Fluoro-indol-1-yl)-ethyl]-azetidin-1-ylmethyl}-8-methyl-2,3-dihydro-[1,4]dioxino[2,3-f]quinoline] | – | – | – | – | 115 °C (dec.) | – |
| Cc1ccc2c3c(ccc2n1)OC[C@H](CN1CCC(Cn2ccc4ccc(C#N)cc42)CC1)O3 (as salt: fumarate) [Example 8] | – | – | – | – | 178 to 180 °C | – |
| Cc1ccc2c3c(ccc2n1)OC[C@H](CN1CCC(Cn2ccc4ccc(F)cc42)CC1)O3 [Example 6] | 1.01 | 9.55 | 242 | 85.5 | – | – |
| Cc1ccc2c3c(ccc2n1)OC[C@H](CN1CC(Cc2cn(C)c4ccc(F)cc24)C1)O3 (as salt: oxalate) [Example 5] | – | – | – | – | 193 to 195 °C | – |
| Cc1ccc2c3c(ccc2n1)OCC(CN1CC(Cc2c[nH]c4ccccc24)C1)O3 (stereo not shown) [Example 4, 2-[3-(1H-Indol-3-ylmethyl)-azetidin-1-ylmethyl]-8-methyl-2,3-dihydro-[1,4]dioxino[2,3-f]quinoline] | 0.56 | 9.2 | 37.2 | – | – | 76.4 |
| Cc1ccc2c3c(ccc2n1)OCC(CN1CC(Cc2c[nH]c4ccc(F)cc24)C1)O3 (stereo not shown) (as salt: hydrochloride) [Example 1, 2-[3-(5-Fluoro-1H-indol-3-ylmethyl)-azetidin-1-ylmethyl]-8-methyl-2,3-dihydro-[1,4]dioxino[2,3-f]quinoline] | – | – | – | – | 125 °C (dec.) | – |
| Cc1ccc2c3c(ccc2n1)OCC(CN1CCCC(Cc2c[nH]c4ccc(F)cc24)C1)O3 (stereo not shown) [Example 2, 2-[3-(5-Fluoro-1H-indol-3-ylmethyl)-piperidin-1-ylmethyl]-8-methyl-2,3-dihydro-[1,4]dioxino[2,3-f]quinoline] | 15.3 | 3.3 | 552 | 100 | – | – |
| Cc1ccc2c3c(ccc2n1)OC[C@H](CN1CCC(Cn2ccc4ccc(F)cc42)CC1)O3 (as salt: fumarate) [Example 6] | – | – | – | – | 140 to 142 °C | – |
